Target: T1, HopAO1 (Pseudomonas syringae group genomosp. 3, UniProt Q79LY0)
T1 construct: gene hopD2; full-length, N-terminal 6xHis (pMCSG57-hopAO1, DNASU), E. coli BL21-CodonPlus(DE3)-RIL
Assay: in vitro phytate degradation
Type: biochemical

T1 sequence (Q79LY0 whole entry): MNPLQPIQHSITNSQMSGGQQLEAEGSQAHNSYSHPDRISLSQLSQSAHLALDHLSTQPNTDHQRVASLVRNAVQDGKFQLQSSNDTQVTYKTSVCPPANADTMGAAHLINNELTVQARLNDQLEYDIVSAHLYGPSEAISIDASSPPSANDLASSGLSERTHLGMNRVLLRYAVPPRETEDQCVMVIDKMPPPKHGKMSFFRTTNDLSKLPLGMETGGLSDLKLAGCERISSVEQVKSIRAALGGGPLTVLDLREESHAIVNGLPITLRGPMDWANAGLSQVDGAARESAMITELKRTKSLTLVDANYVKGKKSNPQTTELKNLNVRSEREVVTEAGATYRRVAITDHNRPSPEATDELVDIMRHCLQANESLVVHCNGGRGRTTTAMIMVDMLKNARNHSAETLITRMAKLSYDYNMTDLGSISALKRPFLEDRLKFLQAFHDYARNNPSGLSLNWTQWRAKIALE

## O=P(O)(O)O[C@H]1[C@H](OP(=O)(O)O)[C@@H](OP(=O)(O)O)[C@H](OP(=O)(O)O)[C@@H](OP(=O)(O)O)[C@H]1OP(=O)(O)O [InsP6]
  in vitro phytate degradation: HopAO1 degraded phytate in vitro but, in contrast to XopH, to lower phosphorylated
